Values of other authors, collected in patent publication US20030181501A1 (priority 2001, published 2003).

Details: Dionne (1999)

Solubility in water: extremely low solubility in water
Structure (SMILES): Cc1onc(-c2ccccc2)c1-c1ccc(S(N)(=O)=O)cc1 [Valdecoxib, 4-(5-methyl-3-phenyl-4-isoxazolyl)benzenesulfonamide]
